{"source": "patent US20130331332A1", "about": "“COMPOSITION COMPRISING PEROXISOME PROLIFERATOR-ACTIVATED RECEPTOR-GAMMA” (MERZ PHARMA GmbH & Co. KGaA, priority 2011, published 2013)", "type_in_all_cases": "cell-based, human", "key": {"[1]": {"tested_on": "adipose-derived stem cells", "test": "Cell proliferation of adipose-derived stem cells, MTT photometric assay (Example 4)", "conditions": "6 days, FIG. 1", "procedure": "Cell proliferation was determined by a photometric assay using MTT (3-(4,5-dimethylthiazol-2-yl)-2,5-diphenyltetrazolium bromide). In brief, human adipose-derived stem cells were isolated from 5 different donors according to example 3 and 1.5×10^4 cells were seeded in 96-well-plates. Cell samples were used in quadruplicate in each experiment. The human adipose-derived stem cells were cultured for 6 days in two different media containing PPARγ or control media. Recombinant PPARγ (recPPARγ) (Thermo Scientific-Pierce, PPARgamma human) was solved in dimethyl sulfoxide (DMSO) at a concentration of 270 µg/ml and used as a stock solution. Working solutions were prepared by dilution using a factor of 1:100 for a final concentration of 2.7 μg/ml, a factor of 1:270 for a final concentration of 1 μg/ml, a factor of 1:540 for a final concentration of 0.5 μg/ml, and a factor of 1:2700 for a final concentration of 0.1 μg/ml. […]\nAfter 6 days of culturing, the cells were incubated in PBS containing MTT at 37° C. for 4 hours. Afterwards, the medium was removed, 0.04 N HCl was added, and absorbance was measured in a microplate reader at 550 nm versus 650 nm. […]"}, "[2]": {"tested_on": "adipose-derived stem cells (ASCs)", "test": "Oil-O-Red staining of fat vacuoles in adipose-derived stem cells (Example 6)", "conditions": "for adipogenic differentiation / development of fat vacuoles (Oil-O-Red staining): 3 weeks of incubation in NM; for formation of fat vacuoles / adipogenic differentiation (Oil-O-Red staining): PPARγ 2.7, 1, 0.5 or 0.1 μg/ml", "procedure": "The induction of adipogenic differentiation by recombinant PPARγ was verified by Oil-O-Red staining of fat vacuoles. Human adipose-derived stem cells (ASCs) from 4 different donors were isolated as described in example 3. The cells were cultured for 2 weeks in “NM”, a standard culture medium of Dulbecco's modified Eagle's medium with a physiologic glucose concentration of 100 mg/dl (DMEM, Sigma, Germany) supplemented with 10% fetal calf serum (FCS; PAA, Germany) and medium was changed every 5-6 days. Cells were cultured in NM containing 2.7 μg/ml, 1 μg/ml, 0.5 μg/ml, or 0.1 μg/ml of PPARγ (Thermo Scientific-Pierce, PPARgamma human), respectively, or 5 μM Pioglitazone (Sigma-Aldrich, Germany), or 5 μM Pioglitazone and 2.7 μg/ml PPARγ, or 5 μM Pioglitazone and 0.1 μg/ml PPARγ. Controls were cultured in NM.\nAfter 2 weeks in culture the formation of lipid droplets which is indicative of the ability to differentiate was verified by Oil-O-Red staining. Oil-O-Red is a fat-soluble dye used for the staining of neutral triglycerides. […] After fixation with 4% paraformaldehyde for 20 minutes, the cells were incubated for a staining time of 1 hour with a 0.5% Oil-O-Red (Sigma) solution in Isopropanol/glycerine. The Oil-O-Red staining was evaluated microscopically.\nFurther cells were cultured in NM containing 5 μM Pioglitazone (Sigma-Aldrich, Germany), or 5 μM Pioglitazone and 2.7 μg/ml PPARγ, or 5 μM Pioglitazone and 0.1 μg/ml PPARγ.\nFurther cell samples were cultured in “AM-” composed of DMEM with 4500 mg/l glucose, 10 μM insulin (Novo Nordisk), 1 μM dexamethasone (Ratiopharm), 10% FCS. Cell samples were cultured in AM- containing 2.7 μg/ml, 1 μg/ml, 0.5 μg/ml, or 0.1 μg/ml of PPARγ, respectively, or 5 μM Pioglitazone, or 5 μM Pioglitazone and 2.7 μg/ml PPARγ. Negative control cells were cultured in AM-. Cells incubated with DMEM with 4500mg/l glucose, 10 μM insulin (Novo Nordisk), 1 μM dexamethasone (Ratiopharm), 10% FCS and 1 mM isobutyl-methylxanthin (Sigma) and 200 μM indometacin (Fluka) were used as a positive induction control.\nCulturing of cells in NM and in AM- containing the different PPARγ concentrations as given above was repeated with an incubation period of 3 weeks."}, "[3]": {"tested_on": "adipose-derived stem cells (ASC)", "test": "Induction of adipocyte differentiation by PPARgamma, oil red O staining (Example 2)", "conditions": "PPARgamma 0.0001%, 0.01% and 1% by weight in culture media; 5 days incubation, further 9 days in culture; oil red O staining of lipid droplets", "procedure": "The ability of peroxisome proliferator-activated receptor-gamma to induce differentiation of adipocytes was studied in adipose-derived stem cells (ASC). Human adipose-derived stem cells were obtained by liposuction and cultured following a published procedure (Crandall et al, Endocrinology 140:154-8, 1999). In brief, adipose tissue was digested with 2 mg/mL collagenase in Krebs-Ringer-bicarbonate buffer (pH 7.4). The preadipocyte fraction was resuspended in growth medium, transferred to a culture flask, and maintained in an incubator at 37° C., and 5% CO2. Cell attachment was allowed for 16-20 h and afterwards the cells that had not adhered were removed.\nPeroxisome proliferator-activated receptor-gamma (PPARgamma) was added to respective final concentrations of 0.0001%, 0.01% and 1% by weight to the culture media 24 hours after the cells were seeded. The media was changed every three days and supplemented with fresh peroxisome proliferator-activated receptor-gamma. The cells were incubated with peroxisome proliferator-activated receptor-gamma for 5 days. Afterwards peroxisome proliferator-activated receptor-gamma was removed, and the cells were kept for further 9 days in culture for observation of lipid droplet formation, which is indicative of the ability to differentiate. Controls were run in medium without peroxisome proliferator-activated receptor-gamma. […]"}, "[4]": {"tested_on": "adipose-derived stem cells", "test": "Photometric measurement (optical density) of adipogenic differentiation in adipose-derived stem cells (Example 5)", "conditions": "2 weeks of culturing, FIG. 2", "procedure": "The induction of adipogenic differentiation by recombinant PPARγ was tested in human adipose-derived stem cells from 4 different donors isolated as described in example 3. The cells were cultured for 2 weeks, and media were changed every 5-6 days. Cell samples were seeded with 1.5×10^4 cells in 96-well-plates. Recombinant PPARγ (recPPARγ) (Thermo Scientific-Pierce, PPARgamma human) was solved in dimethyl sulfoxide (DMSO) at a concentration of 270 µg/ml and used as a stock solution. Working solutions were prepared by dilution using a factor of 1:100 for a final concentration of 2.7 μg/ml, a factor of 1:270 for a final concentration of 1 μg/ml, a factor of 1:540 for a final concentration of 0.5 μg/ml, and a factor of 1:2700 for a final concentration of 0.1 μg/ml.\nCells were cultured in two different media, either in “NM”, a standard culture medium of Dulbecco's modified Eagle's medium with a physiologic glucose concentration of 100 mg/dl (DMEM, Sigma, Germany) supplemented with 10% fetal calf serum (FCS; PAA, Germany), or in “AM-” composed of DMEM with 4500 mg/l glucose (high glucose) and 10 μM insulin (Novo Nordisk), 1 μM dexamethasone (Ratiopharm), and 10% FCS. Cell samples were cultured in NM containing 2.7 μg/ml, 1 μg/ml, 0.5 μg/ml, or 0.1 μg/ml of PPARγ, respectively. […] After 2 weeks of culturing, the optical density was measured in a microplate reader. […]"}}}
{"molecule": "CCc1ccc(CCOc2ccc(CC3SC(=O)NC3=O)cc2)nc1", "note": "(racemic) [Pioglitazone, (RS)-5-{p-[2-(5-ethyl-2-pyridyl)ethoxy]benzyl}-2,4-thiazolidinedione, reference compound]", "values": [{"measurement": "cell proliferation (MTT assay)", "setting": "[1]; 5 μM Pioglitazone alone, NM standard medium", "value": "no effect"}, {"measurement": "adipogenic differentiation / development of fat vacuoles (Oil-O-Red staining)", "setting": "[2]", "value": "only slightly induced differentiation"}]}
{"molecule": "PPARγ: Recombinant PPARγ protein (Thermo Scientific-Pierce, PPARgamma human); nuclear hormone receptor transcription factor", "values": [{"measurement": "cell proliferation (MTT assay)", "setting": "[1]; 2.7, 1, 0.5 or 0.1 μg/ml PPARγ, both media (NM and AM-)", "value": "stimulated the proliferation of the adipose-derived stem cells in a dose-dependent manner"}, {"measurement": "formation of fat vacuoles / adipogenic differentiation (Oil-O-Red staining)", "setting": "[2]; 2 weeks of culture in AM- medium", "value": "able to induce the formation of fat vacuoles"}, {"measurement": "formation of fat vacuoles / adipogenic differentiation (Oil-O-Red staining)", "setting": "[2]; 2 weeks of culture in NM, Pioglitazone 5 μM, FIG. 3", "value": "able to induce the formation of fat vacuoles"}, {"measurement": "formation of fat vacuoles and adipogenic differentiation (Oil-O-Red staining)", "setting": "[2]; 3 weeks of culture in AM- medium", "value": "induced the formation of fat vacuoles and adipogenic differentiation"}, {"measurement": "adipogenic differentiation / development of fat vacuoles (Oil-O-Red staining)", "setting": "[2]", "value": "heavily induced adipogenic differentiation"}, {"measurement": "Degree of differentiation", "setting": "[3]", "value": "++ to +++"}, {"measurement": "cytotoxic effect on cells (cell number by optical density)", "setting": "[4]; 2.7-0.1 μg/ml PPARγ", "value": "no cytotoxic effect"}, {"measurement": "differentiation and proliferation (increase in optical density)", "setting": "[4]; both media (NM and AM-)", "value": "stimulated the differentiation and proliferation"}]}
